≈ marks a conversion by molar mass, not a printed value. Where two headings read alike, the source gives them in different places. Bounds are passed on as bounds.

For orientation: Kd means the free concentration of one partner at which half of the binding sites on the other are occupied at equilibrium, for simple one-to-one binding. The term MIC denotes the lowest concentration that inhibits growth of the organism.

Data set [1] is classed as binding. The source says:
(§1) However, an alternative method was developed for reproducible formation of homogenous AmB and C2′epiAmB sterol sponge aggregates in vitro. Using these preparations, a quantitative UV-Vis and Principle Component (PCA) based assay for determining the apparent KDS for the binding of AmB and C2′epiAmB to ergosterol and cholesterol (FIGS. 5A-D) was developed.
(§2) Biophysical studies support the conclusion that different capacities to bind cholesterol underlie these striking differences in toxicity for the AmBUreas versus C2′epiAmB (FIG. 15). Isothermal titration calorimetry is unable to distinguish between cholesterol binding in these two series. However, a more sensitive and quantitative UV-Vis/PCA based sponge-sterol titration experiments described above (see Example 1) was employed to quantify the binding of a representative AmB urea (AmBAU) to ergosterol and cholesterol. […] It was reasoned that the lack of cholesterol binding in C2′epiAmB to a ligand-selective allosteric effect was caused by epimerization of the C2′stereocenter (see Example 1), and thus predict that the biophysical effects associated with C2′-epimerization should be transposable to other AmB derivatives.

In data set [2] the test system is primary human renal epithelial cells (hREC). The source says: As a complementary parallel first step in the screening funnel, the MTC's of all new derivatives will be evaluated against hREC using a WST-8 cell proliferation assay kit as previously described above. The MTC will be determined by calculating the mean of at least two biological replicates.
Data set [3] relates to C. albicans. In words: MIC against C. albicans with and without pre-complexation with ergosterol. As to conditions: sponge pre-complexed with ergosterol. It counts as cell-based. The source says: Anderson, T. M. et al., Nat Chem Biol 2014, 10 (5), 400-6. […] Davis, S. A., et al., Nat Chem Biol 2015, 11 (7), 481-7. To test whether C2′epiAmB primarily kills cells via the same sterol sponge mechanism, the C2′epiAmB sponge was similarly pre-complexed with ergosterol (FIG. 9). […] Thus, C2′epiAmB similarly kills yeast primarily via sterol binding, and, by extension, the new compounds targeted in this application are expected to have a similar barrier to fungal resistance that has been observed for the past 50+ years with AmB.

The subject of data set [4] is panel of clinical isolates. Kind of data set: In vitro antifungal activity, panel of clinical isolates (FIG. 11B). Format: cell-based. Conditions: read-out: Mean MIC. The source says:
Burke, Andes, and Lindquist reported in 2015 a series of AmB derivatives in which the C16 acid is replaced with a urea motif via a scalable 3-step synthesis from AmB (FIG. 11A). Davis, S. A., et al., Nat Chem Biol 2015, 11 (7), 481-7. AmBUreas were studied at REVOLUTION Medicines, a biotech company for which Burke is a Founder and Consultant and Steinbach served on the Clinical Advisory Board.
(§3) Both AmBAU and AmBTACBU was further tested and compared to AmB against four strains of clinically relevant Candida species and four challenging strains of A. fumigatus (FIG. 11D).

The subject of data set [5] is four strains of clinically relevant Candida species and four challenging strains of A. fumigatus. In words: In vitro antifungal activity, four Candida strains and four A. fumigatus strains (FIG. 11D). It counts as cell-based. As to conditions: Aspergillus fumigatus, read-out: Mean MIC.
Source text: as §3

Data set [6] concerns invasive candidiasis. Kind of data set: Murine model of invasive candidiasis, intraperitoneal AmBUreas (FIG. 12). It counts as in vivo, mice. The protocol:
(§4) To enable a head-to-head comparison with the AmB urea derivatives, AmB was delivered as a non-deoxycholate complex. […] These AmBUreas were also tested via intravenous administration in a similar model at EvoTec (Oxfordshire, UK), and their activities were compared directly with IV AmB-deoxycholate (Fungizone®) and liposomal AmB (AmBisome®) (FIG. 13).

Data set [7] is described as follows: UV-Vis/PCA sterol sponge titration, cholesterol. Format: binding.
Source text: as §1, §2

For data set [8], the system named is human red blood cells. It counts as cell-based.
Data set [9] can be described thus: IV toxicity in mice (mortality). Format: in vivo. Conditions: IV, mice.
Data set [10] has as its system candidiasis. Kind of data set: Candidiasis mouse model, intravenous administration (EvoTec, FIG. 13). Format: in vivo, mice. The protocol: as §4
The test system of data set [11] is wide range of clinically relevant pathogens. In words: In vitro antifungal activity, wide range of clinically relevant pathogens (FIG. 11C). It counts as cell-based. Conditions: across a wide range of pathogens. The source says: (§5) Steinbach and Burke recently collaborated to further compare the activity of a series of AmBUreas (AmBAU, AmBMU, and AmBCU) with AmBisome®, C2′epiAmB, caspofungin, and voriconazole against a wide range of clinically relevant pathogens, including AmB-resistant Scedosporium strains (FIG. 11C).

Data set [12] concerns Scedosporium prolificans. Kind of data set: In vitro antifungal activity against Scedosporium prolificans. It counts as cell-based. As to conditions: recalcitrant strain.
Source text: as §5

The nature of data set [13]: PK/PD properties in mice, rats and dogs (FIG. 14). Format: in vivo. As to conditions: rats, dogs.
The nature of data set [14]: IV toxicity in rats (BUN, ALT/AST, mortality). As to conditions: 6 mg/kg.
A short description of data set [15]: Isothermal titration calorimetry (ITC) sterol binding, ergosterol. As to conditions: within detection limits of ITC. The source says:
(§6) This key discovery opened a path to the rational development of a non-toxic AmB variant. To probe its predicted role in sterol binding, the hydroxyl group was synthetically deleted at the C2′ position on the mycosamine appendage. […] Consistent with the sterol sponge model, this derivative retained good activity against yeast but, most importantly, was nontoxic to human red blood cells and primary (hREC) (FIG. 2B).
(§7) A practical 11-step synthesis of C2′epiAmB using a frontier site-selective acylation method was developed (FIG. 4). Wilcock, B. C. et al., Nat Chem 2012, 4 (12), 996-1003; Uno, B. E. A synthesis enabled understanding of Amphotericin B leading to derivatives with improved therapeutic indices. University of Illinois at Urbana-Champaign, 2014. The sterol binding and cell killing activities was then determined.
For orientation: Isothermal titration calorimetry measures the heat released or taken up as one component is titrated into another.

The nature of data set [16]: Isothermal titration calorimetry (ITC) sterol binding, cholesterol. Conditions: within detection limits of ITC.
Source text: as §6, §7

The test system of data set [17] is yeast. Kind of data set: Activity against yeast / cell killing (FIG. 2). It counts as cell-based.
Source text: as §6, §7

The test system of data set [18] is A. fumigatus 91, A. fumigatus 1100. Kind of data set: MIC against A. fumigatus 91 and A. fumigatus 1100. Format: cell-based. The source says: The results with C2′epiAmBAU strongly support the prediction that C16 modifications will show improved potency compared to C2′epiAmB. […] Thus, it is expected that hybridizations of C2′epiAmB with other urea side chains will yield similar increases in potency without any mammalian toxicity. If this proves not to be the case, other classes of C16 modifications that also increase potency will be pursed. […] Alternative modifications may be pursed at the mycosamine appendage that the modelling predicts should similarly eliminate the water-bridged C2′OH to C13OH hydrogen bond, e.g., C2′deoxygenation, C2′-halodeoxygenation, or C2′-methyldeoxygenation, and thus eliminate cholesterol binding (see FIGS. 3A and 3B). This study anticipates high doses of non-toxic C2′epiAmBUreas will yield a significant reduction in fungal burden and therefore an increase in survival in QD dosing efficacy studies relative to AmB-deoxycholate (Fungizone®), AmBisome®, C2′epiAmB, voriconazole, and caspofungin.

`C[C@@H]1[C@H](O)[C@@H](C)/C=C/C=C/C=C/C=C/C=C/C=C/C=C/[C@H](O[C@@H]2O[C@H](C)[C@@H](O)[C@H](N)[C@@H]2O)C[C@@H]2O[C@](O)(C[C@@H](O)C[C@@H](O)[C@H](O)CC[C@@H](O)C[C@@H](O)CC(=O)O[C@H]1C)C[C@H](O)[C@H]2C(=O)O` [AmB, Amphotericin B] gave a Kd in data set [1] of 120 nM. Further, in data set [2] (human), the “minimum toxic concentration (MTC) against primary hRECs” value was 2.4 µM and the “minimum toxic concentration (MTC) in hREC, preliminary analysis” value lay within 2 to 4 µM. For the same compound, in data set [3], the “change in potency upon ergosterol pre-complexation” value is on record as “same reduction in potency”. Also, the MIC in data set [4] came out at 1.23 µM (≈ 1.14 µg/mL). Further, the MIC in data set [5] was 1.33 µM (≈ 1.23 µg/mL). Moreover, the dose-response result in [6] (AmB delivered as a non-deoxycholate complex) is on record as “atypical lack of dose-response”.

In the case of `C[C@@H]1[C@H](O)[C@@H](C)/C=C/C=C/C=C/C=C/C=C/C=C/C=C/C(OC2O[C@H](C)[C@@H](O)[C@H](N)[C@@H]2O)C[C@@H]2O[C@](O)(C[C@@H](O)C[C@@H](O)[C@H](O)CC[C@@H](O)C[C@@H](O)CC(=O)O[C@H]1C)C[C@H](O)[C@H]2NC(=O)NCCN` (stereo partly drawn) [AmBAU], in [1] (UV-Vis/PCA sponge-sterol titration), the binding to ergosterol entry was “confirmed to bind”. In addition, in data set [7], the binding to cholesterol entry is recorded as “confirmed to bind”. Moreover, the “minimum toxic concentration (MTC) against primary hRECs” value in [2] was found to be 11.3 µM. Further, in data set [8] (highest concentrations tested), the “concentration failing to fully lyse red blood cells” value was greater than 500 µM. Moreover, the “dose at which death was observed” value in data set [9] was 32 mg/kg. Further, the kidney fungal burden entry in data set [10] (1 mg/kg, within the limits of assay detection) is “sterilization in multiple mice”; in data set [10] (16 mg/kg), “complete sterilization”. Besides, the MIC in data set [5] (FIG. 11D, four Candida and four A. fumigatus strains) is 0.5 µM (≈ 0.491 µg/mL). For the same compound, the antifungal potency entry in [11] is recorded as “excellent potency”. Also, the “activity against Scedosporium prolificans” value in [12] is “active”. The PK/PD properties result in data set [13] was “favorable PK/PD properties”. Further, in data set [6] (administered intraperitoneally), the efficacy entry is recorded as “exceptionally effective”. Besides, the toxicity in rats result in [14] is “significant toxicity”.

As to `CNC(=O)N[C@H]1[C@@H]2CC(OC3O[C@H](C)[C@@H](O)[C@H](N)[C@@H]3O)/C=C/C=C/C=C/C=C/C=C/C=C/C=C/[C@H](C)[C@@H](O)[C@@H](C)[C@H](C)OC(=O)C[C@H](O)C[C@H](O)CC[C@@H](O)[C@H](O)C[C@H](O)C[C@](O)(C[C@@H]1O)O2` (stereo partly drawn) [AmBMU], the binding to cholesterol result in data set [7] is “retains the capacity to bind cholesterol”. Besides, the “minimum toxic concentration (MTC) against primary hRECs” value in data set [2] (human) turned out to be 44.4 µM. The toxicity in rats result in data set [14] was “significant toxicity”.

Take `CC1C=CC=CC=CC=CC=CC=CC=CC(OC2CC(N)C(O)C(C)O2)CC2OC(O)(CC(O)CC(O)C(O)CCC(O)CC(O)CC(=O)OC(C)C(C)C1O)CC(O)C2C(=O)O` (stereo not drawn) [C2′deOAmB, reference compound]: the “binding of ergosterol by ITC” value in [15] is given as “bind ergosterol”. Besides, in data set [16], the “binding of cholesterol by ITC” value is recorded as “not cholesterol”. In addition, the “toxicity to primary hREC” value in data set [2] was “nontoxic”. The “toxicity to human red blood cells” value in [8] is reported as “nontoxic”. Further, the activity against yeast result in data set [17] is given as “good activity”.

Turning to `COC(=O)C1C(O)CC2(O)CC(O)CC(O)C(O)CCC(O)CC(O)CC(=O)OC(C)C(C)C(O)C(C)C=CC=CC=CC=CC=CC=CC=CC(OC3OC(C)C(O)C(N)C3O)CC1O2` (stereo not drawn) [C2′epiAmBME, C2′epiAmB C16 methyl ester], the MIC in data set [18] (A. fumigatus 91) and in data set [18] (A. fumigatus 1100) was 4 µM (≈ 3.75 µg/mL) in each case.

The record behind these values is patent publication US11198705B2, “Hybrid Amphotericin B derivatives with reduced toxicity” (priority 2018, dated 2021).
